Experimental data as given in PubChem BioAssay AID651598 (Sanford-Burnham Center for Chemical Genomics, 2012).
Activity calls are given as the source filed them.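 Rule for the calls: active = CXCR6 IC50 under 10 µM and IC50 at the unrelated APJ receptor at least five times higher; inactive = the rest.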

Key:
[1] = target: Apelin receptor (Homo sapiens) (UniProt P35414); assay: apelin receptor (APJ) antagonists, SAR follow-up, counter-screen for CXCR6 antagonist project, cell-based, beta-arrestin, DiscoveRx, panel, CHO-K1 (AID 651598); conditions: CHO-K1 PathHunter beta-arrestin luminescence, antagonist mode; APJ; mean of runs
Apelin receptor (Homo sapiens), sequence (P35414 whole entry, looked up): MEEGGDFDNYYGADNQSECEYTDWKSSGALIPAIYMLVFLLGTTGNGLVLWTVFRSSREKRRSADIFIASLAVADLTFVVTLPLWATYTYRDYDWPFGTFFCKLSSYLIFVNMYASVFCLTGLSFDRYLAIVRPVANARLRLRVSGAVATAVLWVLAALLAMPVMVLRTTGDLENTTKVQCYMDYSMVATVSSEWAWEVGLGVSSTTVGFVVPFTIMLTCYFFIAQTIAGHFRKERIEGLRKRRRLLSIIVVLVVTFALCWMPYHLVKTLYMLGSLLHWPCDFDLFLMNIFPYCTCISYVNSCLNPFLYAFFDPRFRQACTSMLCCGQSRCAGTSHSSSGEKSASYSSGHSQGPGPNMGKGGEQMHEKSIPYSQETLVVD

[2] = target: C-X-C chemokine receptor type 6 (Homo sapiens) (UniProt O00574); assay: as above; conditions: CHO-K1 PathHunter beta-arrestin luminescence, antagonist mode; CXCR6; mean of runs
C-X-C chemokine receptor type 6 (Homo sapiens), sequence (O00574 whole entry, looked up): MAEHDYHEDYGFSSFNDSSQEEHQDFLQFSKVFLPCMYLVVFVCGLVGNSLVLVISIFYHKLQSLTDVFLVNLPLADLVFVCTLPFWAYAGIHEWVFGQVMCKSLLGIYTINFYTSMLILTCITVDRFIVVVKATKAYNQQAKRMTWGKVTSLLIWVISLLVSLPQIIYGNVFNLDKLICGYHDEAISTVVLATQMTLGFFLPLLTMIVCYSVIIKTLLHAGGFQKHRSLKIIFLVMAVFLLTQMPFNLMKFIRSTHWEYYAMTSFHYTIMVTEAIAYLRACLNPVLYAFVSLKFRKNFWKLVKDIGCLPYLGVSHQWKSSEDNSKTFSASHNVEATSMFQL

Structure (SMILES): COc1cc(C(=O)NC2CC3CCC(C2)N3CC(=O)Nc2ccccc2)cc(OC)c1OC (centres undefined)
- IC50 [1]: > 80 µM (inactive)

Structure (SMILES): COc1cc(C(=O)NC2CC3CCCC(C2)N3CC(=O)Nc2ccccc2)cc(OC)c1OC (centres undefined)
- IC50 [1]: > 80 µM (inactive)

Structure (SMILES): COc1cc(C(=O)NC2CCN(CC(=O)Nc3ccccc3)CC2)cc(OC)c1OC
- IC50 [2]: > 80 µM (inactive)
- IC50 [1]: > 80 µM (inactive)
